Source: patent publication US12378268B2, “Heterocyclic THR-β receptor agonist compound and preparation method and use therefor” (Hepagene Therapeutics (HK) Limited, priority 2019, dated 2025)
Like-named read-outs stand apart in the source and are kept apart here.

Key:
THR-β = biological target: T1, THR-β (Homo sapiens, UniProt P10828); assay: Test of the binding ability of the compound to TRβ (TRβ LBD/RXR, biotin-SRC2-2 co-activating peptide, 665/615 nm fluorescence ratio); type: biochemical; details: for Emax: activity relative to positive control; for α/β selectivity (multiple): calculated after being standardized with T3
T1 construct: TRB LBD, GST purchased from Thermo Fisher; purchased Thermo Fisher PV4762
Experimental: 1. Main experimental materials and instruments:
Biotin-SRC2-2 co-activating peptide purchased from Sangon Biotech (Shanghai) Co., Ltd.
TRB LBD, GST purchased from Thermo Fisher (product No. PV4762)
Europium-conjugated anti-glutathione antibody purchased from Cisbio (product No. 61GSTKLB)
Streptavidin-D2 purchased from Cisbio (product No. 610SADAB)
(§1) 4.2 The activity percentage was calculated as follows: […]
(§2) RatioCompound: Average of the relative ratios of the compound wells of the embodiments
(§3) RatioPositive: Average of the relative ratios of all positive control wells.
(§4) RatioBlank: Average of the relative ratios of all negative control wells.
(§5) EC50 was calculated by fitting the relationship between activity (%) and compound logarithmic concentration with Graphpad 5.0 by a nonlinear regression method.
(§6) Y=Bottom+ (top-bottom)/(1+10^((LogEC50−X)*slope))
(§7) X: Compound logarithmic concentration Y: Percentage activity

THR-α = biological target: T2, THR-α (Homo sapiens, UniProt P10827); assay: Test of the binding ability of the compound to TRα (TRα LBD/RXRα, biotin-SRC2-2 co-activating peptide, 665/615 nm fluorescence ratio); type: biochemical; details: for Emax: activity relative to positive control
T2 construct: TR-a LBD, GST purchased from Thermo Fisher; purchased Thermo Fisher PV4762
Experimental: as §1, §2, §3, §4, §5, §6, §7

[1] = Drug metabolism experiment on prodrug in SD rats: concentration in liver compared with blood; type: in vivo; details: SD rats; for transformation of prodrug into active metabolite 1 in the liver: oral 3 mg/kg, in words
Experimental: (§8) Test 3: Drug metabolism experiment on prodrug in SD rats
(§9) In the experiment, […] of 12 male SD rats having similar body weights were selected and orally administered compound 9, compound 10, and the control drug VK2809 (the prodrug of MB07444, structured as shown below) at a dose of 3 mg/kg at a single time, respectively, and blood and liver samples were collected at different time points.
(§10) Solutions of compound 9/compound 10 and VK2809 with a final concentration of 0.6 mg/mL were respectively prepared, and the ratio between the solvents used for the preparation was PEG400: pure water =50:50 (v/v).
(§11) No randomization was performed. The weights of the animals were measured before administration, and healthy animals with similar body weights were selected for inclusion in the experiment. The oral dose was 3 mg/kg.
(§12) At least 0.2 mL of blood was collected from the tail vein or jugular vein, and heparin sodium was used as the anticoagulant.
(§13) After being collected, a blood sample was placed in a marked ice-water bath centrifuge tube, plasma was quickly separated by centrifugation under centrifugation conditions: 3500 rpm, 10 minutes, and 4° C., and the plasma was stored under −40° C. for testing.
After the liver sample was collected, its surface was washed with normal saline, dried with medical gauze, placed in a labeled small ziplock bag, and stored under −40° C. for testing.
(§14) Q TRAP6500 mass spectrometer with ESI source was used to perform negative ion MRM scanning. An LC-MS/MS analysis method was used to detect the contents of compound 9, compound 10 and its active metabolite 1, VK2809 and its active metabolite MB07444 in the plasma and liver. The metabolic kinetics data analysis software WinNonlin 7.0 was used to calculate the concentration data of plasma, and the non-compartmental model (NCA) method was used to calculate the pharmacokinetic parameters.
The parameters of concentration in the livers of the SD rats and a comparison with the concentration in plasma are shown in Table 3 below: […]

[2] = Drug metabolism experiment on prodrug in SD rats: plasma pharmacokinetic parameters; type: in vivo; details: for concentration of prodrug in plasma / transformation of prodrug into the active parent drug after oral administration: oral 3 mg/kg, in words
Experimental: as §8, §9, §10, §11, §12
15 min, 30 min, 1 h, 2 h, 4 h, 6 h, 8 h, 24 h after administration.
as §13, §14

[3] = plasma, oral 3 mg/kg Compound 9
[4] = male, Sprague-Dawley (SD), rat, plasma, po, 3 mg/kg, oral 3 mg/kg Compound 10
[5] = male, Sprague-Dawley, rat, liver, po, 3 mg/kg, 1 h, oral 3 mg/kg VK-2809, read-out: Ct Liver
[6] = male, Sprague-Dawley, rat, liver, po, 3 mg/kg, 4 h, oral 3 mg/kg VK-2809, read-out: Ct Liver
[7] = male, Sprague-Dawley, rat, liver, po, 3 mg/kg, 8 h, oral 3 mg/kg VK-2809, read-out: Ct Liver
[8] = male, Sprague-Dawley, rat, liver/plasma, po, 3 mg/kg, 1 h, oral 3 mg/kg VK-2809, read-out: Liver-to-blood ratio
[9] = male, Sprague-Dawley, rat, liver/plasma, po, 3 mg/kg, 4 h, oral 3 mg/kg VK-2809, read-out: Liver-to-blood ratio
[10] = male, Sprague-Dawley, rat, liver/plasma, po, 3 mg/kg, 8 h, oral 3 mg/kg VK-2809, read-out: Liver-to-blood ratio
[11] = male, Sprague-Dawley, rat, plasma, po, 3 mg/kg, 1 h, oral 3 mg/kg VK-2809, read-out: Ct Blood
[12] = male, Sprague-Dawley, rat, plasma, po, 3 mg/kg, 4 h, oral 3 mg/kg VK-2809, read-out: Ct Blood
[13] = male, Sprague-Dawley, rat, plasma, po, 3 mg/kg, 8 h, oral 3 mg/kg VK-2809, read-out: Ct Blood
[14] = male, Sprague-Dawley (SD), rat, plasma, po, 3 mg/kg, oral 3 mg/kg VK2809
[15] = male, Sprague-Dawley (SD), rat, plasma, po, 3 mg/kg, plasma, oral 3 mg/kg VK2809, read-out: Cmax

T2 sequence (P10827 163-410 isoform P10827-2 limits assumed, other chains not shown): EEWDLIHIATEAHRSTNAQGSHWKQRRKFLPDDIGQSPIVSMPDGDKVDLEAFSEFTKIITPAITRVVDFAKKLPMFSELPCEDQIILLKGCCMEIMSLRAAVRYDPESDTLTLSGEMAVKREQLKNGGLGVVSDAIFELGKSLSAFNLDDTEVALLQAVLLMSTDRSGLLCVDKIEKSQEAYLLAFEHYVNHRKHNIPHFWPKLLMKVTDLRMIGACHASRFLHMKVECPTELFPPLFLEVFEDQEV
T2 sequence (P19793 whole entry partner, other chains not shown, the tested form may be a part): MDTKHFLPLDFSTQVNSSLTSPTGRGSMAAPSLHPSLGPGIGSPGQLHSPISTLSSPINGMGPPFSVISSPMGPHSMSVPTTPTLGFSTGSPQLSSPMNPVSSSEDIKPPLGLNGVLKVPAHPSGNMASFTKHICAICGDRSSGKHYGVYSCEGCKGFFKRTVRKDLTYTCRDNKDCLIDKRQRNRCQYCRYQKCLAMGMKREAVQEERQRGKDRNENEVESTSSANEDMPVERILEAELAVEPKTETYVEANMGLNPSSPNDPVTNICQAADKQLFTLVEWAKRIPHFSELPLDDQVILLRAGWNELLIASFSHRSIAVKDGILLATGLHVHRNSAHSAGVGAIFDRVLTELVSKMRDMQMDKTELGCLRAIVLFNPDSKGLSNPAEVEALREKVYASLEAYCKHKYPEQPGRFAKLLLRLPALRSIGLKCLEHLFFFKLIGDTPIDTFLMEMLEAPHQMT
T1 sequence (P10828 217-461 limits assumed, other chains not shown): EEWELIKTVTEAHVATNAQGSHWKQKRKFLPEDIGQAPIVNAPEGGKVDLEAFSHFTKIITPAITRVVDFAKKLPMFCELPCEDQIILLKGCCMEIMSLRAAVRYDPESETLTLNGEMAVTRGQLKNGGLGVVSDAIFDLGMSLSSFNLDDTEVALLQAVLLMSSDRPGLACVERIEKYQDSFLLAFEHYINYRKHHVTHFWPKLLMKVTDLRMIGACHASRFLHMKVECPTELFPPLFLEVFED
T1 sequence (P28702 whole entry partner, other chains not shown, the tested form may be a part): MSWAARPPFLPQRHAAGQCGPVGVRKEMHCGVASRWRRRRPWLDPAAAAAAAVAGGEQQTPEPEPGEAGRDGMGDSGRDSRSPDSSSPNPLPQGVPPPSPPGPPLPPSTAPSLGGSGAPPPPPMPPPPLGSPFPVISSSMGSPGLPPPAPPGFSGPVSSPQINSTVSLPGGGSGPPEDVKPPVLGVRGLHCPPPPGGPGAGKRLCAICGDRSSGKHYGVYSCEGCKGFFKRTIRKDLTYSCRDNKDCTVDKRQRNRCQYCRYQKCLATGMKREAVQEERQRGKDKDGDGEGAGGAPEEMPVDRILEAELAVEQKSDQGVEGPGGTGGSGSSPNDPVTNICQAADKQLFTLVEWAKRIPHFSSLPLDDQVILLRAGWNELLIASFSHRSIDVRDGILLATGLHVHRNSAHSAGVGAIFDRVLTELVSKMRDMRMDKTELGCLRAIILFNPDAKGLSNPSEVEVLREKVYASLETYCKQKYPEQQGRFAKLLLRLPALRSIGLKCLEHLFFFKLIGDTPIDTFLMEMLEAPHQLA

| Structure (SMILES) | EC50 (THR-β) [nM] | Emax (THR-β) [%] | EC50 (THR-α) [nM] | Emax (THR-α) [%] | α/β selectivity (multiple) (THR-β) | concentration at 1 h [1, 5] [ng/g] | concentration at 4 h [1, 6] [ng/g] | concentration at 8 h [1, 7] [ng/g] | Kp at 1 h [1, 8] | Kp at 4 h [1, 9] | Kp at 8 h [1, 10] | concentration at 1 h [1, 11] [ng/g] | concentration at 4 h [1, 12] [ng/g] | concentration at 8 h [1, 13] [ng/g] | AUC(0-inf) [2, 14] [ng·h/mL] | AUC(0-t) [2, 14] [ng·h/mL] | Tmax [2, 14] [h] | transformation of prodrug into active metabolite 1 in the liver [1] | concentration of prodrug in plasma [2] | transformation of prodrug into the active parent drug after oral administration [2] | further results |
| --- | --- | --- | --- | --- | --- | --- | --- | --- | --- | --- | --- | --- | --- | --- | --- | --- | --- | --- | --- | --- | --- |
| Cc1cc(OCP(=O)(O)O)cc(C)c1Oc1ccc(O)c2c1CCC2(C)C [Compound 5, ((4-((7-hydroxy-1,1-dimethyl-2,3-dihydro-1H-indene-4-position)oxy)-3,5-dimethylphenoxy)methyl) phosphoric acid] | < 100 | 110 | < 200 | 102 |  |  |  |  |  |  |  |  |  |  |  |  |  |  |  |  |  |
| Cc1cc(OC[P@@](=O)(N[C@@H](C)C(=O)OC(C)C)Oc2ccccc2)cc(C)c1Cc1ccc(O)c2c1CCC2(C)C [Compound 9] |  |  |  |  |  |  |  |  |  |  |  |  |  |  |  |  |  | rapidly metabolized in the liver to produce active metabolite compound 1 | not high | quickly transformed into the active parent drug compound 1 | Ct Blood ([1]; 1 h, oral 3 mg/kg Compound 9): BLQ; Ct Liver ([1]; 1 h, oral 3 mg/kg Compound 9): BLQ; Ct Blood ([1]; 4 h, oral 3 mg/kg Compound 9): BLQ; Ct Liver ([1]; 4 h, oral 3 mg/kg Compound 9): BLQ; Ct Blood ([1]; 8 h, oral 3 mg/kg Compound 9): BLQ; Ct Liver ([1]; 8 h, oral 3 mg/kg Compound 9): BLQ; Ct Blood ([1]; 24 h, oral 3 mg/kg Compound 9): BLQ; Ct Liver ([1]; 24 h, oral 3 mg/kg Compound 9): BLQ; AUC0−t [2, 3]: BLQ; AUC0−∞ [2, 3]: BLQ; Cmax [2, 3]: BLQ |
| Cc1cc(OC[P@@]2(=O)OCC[C@@H](c3cccc(Cl)c3)O2)cc(C)c1Cc1ccc(O)c2c1CCC2(C)C [Compound 10] |  |  |  |  |  |  |  |  |  |  |  |  |  |  |  |  |  | much better than that of VK2809 | not high | quickly transformed into the active parent drug compound 1 | Ct Blood ([1]; 24 h, oral 3 mg/kg Compound 10): BLQ; Ct Liver ([1]; 24 h, oral 3 mg/kg Compound 10): BLQ; Kp at 1 h ([1]; male, Sprague-Dawley (SD), rat, liver / plasma (heading prints blood), po, 3 mg/kg, 1 h, oral 3 mg/kg Compound 10, read-out: Liver-to-blood ratio): 16.2; Kp at 4 h ([1]; male, Sprague-Dawley (SD), rat, liver / plasma (heading prints blood), po, 3 mg/kg, 4 h, oral 3 mg/kg Compound 10, read-out: Liver-to-blood ratio): 7.8; Kp at 8 h ([1]; male, Sprague-Dawley (SD), rat, liver / plasma (heading prints blood), po, 3 mg/kg, 8 h, oral 3 mg/kg Compound 10, read-out: Liver-to-blood ratio): 4.7; concentration at 1 h ([1]; male, Sprague-Dawley (SD), rat, liver, po, 3 mg/kg, 1 h, oral 3 mg/kg Compound 10, read-out: Ct Liver): 141 ng/g; concentration at 4 h ([1]; male, Sprague-Dawley (SD), rat, liver, po, 3 mg/kg, 4 h, oral 3 mg/kg Compound 10, read-out: Ct Liver): 273 ng/g; concentration at 8 h ([1]; male, Sprague-Dawley (SD), rat, liver, po, 3 mg/kg, 8 h, oral 3 mg/kg Compound 10, read-out: Ct Liver): 46.5 ng/g; concentration at 1 h ([1]; male, Sprague-Dawley (SD), rat, plasma (heading prints blood), po, 3 mg/kg, 1 h, oral 3 mg/kg Compound 10, read-out: Ct Blood): 8.8 ng/g; concentration at 4 h ([1]; male, Sprague-Dawley (SD), rat, plasma (heading prints blood), po, 3 mg/kg, 4 h, oral 3 mg/kg Compound 10, read-out: Ct Blood): 7.9 ng/g; concentration at 8 h ([1]; male, Sprague-Dawley (SD), rat, plasma (heading prints blood), po, 3 mg/kg, 8 h, oral 3 mg/kg Compound 10, read-out: Ct Blood): 10.3 ng/g; AUC(0-inf) [2, 4]: 89.3 ng·h/mL; AUC(0-t) [2, 4]: 69.2 ng·h/mL; Tmax [2, 4]: 4.67 h; half-life [2, 4]: 1.73 h; Cmax ([2]; male, Sprague-Dawley (SD), rat, plasma, po, 3 mg/kg, plasma, oral 3 mg/kg Compound 10, read-out: Cmax): 19.9 ng/mL; Kel ([2]; plasma, oral 3 mg/kg Compound 10): 0.428 h⁻¹ |
| Cc1cc(OCP(=O)(O)O)cc(C)c1Cc1ccc(O)c(C(C)C)c1 [MB07444, reference compound] | 33 | 113 | 51 | 113 | 2.9 | 214 | 952 | 542 | 15.9 | 14 | 13.6 | 5.9 | 16.9 | 29.6 | 448 | 420 | 7.33 |  |  |  | concentration at 24 h ([1]; male, Sprague-Dawley, rat, liver, po, 3 mg/kg, 24 h, oral 3 mg/kg VK-2809, read-out: Ct Liver): 37 ng/g; Kp at 24 h ([1]; male, Sprague-Dawley, rat, liver/plasma, po, 3 mg/kg, 24 h, oral 3 mg/kg VK-2809, read-out: Liver-to-blood ratio): 9.9; concentration at 24 h ([1]; male, Sprague-Dawley, rat, plasma, po, 3 mg/kg, 24 h, oral 3 mg/kg VK-2809, read-out: Ct Blood): 3.6 ng/g; half-life [2, 14]: 5.29 h; Cmax [2, 15]: 38.8 ng/mL; Kel ([2]; plasma, oral 3 mg/kg VK2809): 0.131 h⁻¹ |

The next lines start with results.

| EC50 (THR-β) [nM] | Emax (THR-β) [%] | EC50 (THR-α) [nM] | Emax (THR-α) [%] | α/β selectivity (multiple) (THR-β) | concentration at 1 h [1, 5] [ng/g] | concentration at 4 h [1, 6] [ng/g] | concentration at 8 h [1, 7] [ng/g] | Kp at 1 h [1, 8] | Kp at 4 h [1, 9] | Kp at 8 h [1, 10] | concentration at 1 h [1, 11] [ng/g] | concentration at 4 h [1, 12] [ng/g] | concentration at 8 h [1, 13] [ng/g] | AUC(0-inf) [2, 14] [ng·h/mL] | AUC(0-t) [2, 14] [ng·h/mL] | Tmax [2, 14] [h] | Structure (SMILES) | transformation of prodrug into active metabolite 1 in the liver [1] | concentration of prodrug in plasma [2] | transformation of prodrug into the active parent drug after oral administration [2] | further results |
| --- | --- | --- | --- | --- | --- | --- | --- | --- | --- | --- | --- | --- | --- | --- | --- | --- | --- | --- | --- | --- | --- |
| 108 | 79 | 50 | 99.2 | 0.7 |  |  |  |  |  |  |  |  |  |  |  |  | CC1(C)CCc2c(Cc3c(Cl)cc(OCP(=O)(O)O)cc3Cl)ccc(O)c21 [Compound 6, ((3,5-dichloro-4-((7-hydroxy-1,1-dimethyl-2,3-dihydro-1H-indene-4-position)methyl)phenoxy)methyl) phosphoric acid] |  |  |  |  |
|  |  |  |  |  | 39 | 30 | 17 | 8.6 | 5.2 | 4 | 2.9 | 4.8 | 5.6 | 83.3 | 43.6 | 6 | Cc1cc(OC[P@@]2(=O)OCC[C@@H](c3cccc(Cl)c3)O2)cc(C)c1Cc1ccc(O)c(C(C)C)c1 [VK2809, reference compound] |  |  |  | Ct Blood ([1]; 24 h, oral 3 mg/kg VK-2809): BLQ; Ct Liver ([1]; 24 h, oral 3 mg/kg VK-2809): BLQ; half-life [2, 14]: 4.81 h; Cmax [2, 15]: 9.9 ng/mL; Kel ([2]; plasma, oral 3 mg/kg VK2809): 0.273 h⁻¹ |
